{
  "source": "patent US20070173464A1",
  "about": "“Oral ribavirin pharmaceutical compositions” (Flamel Technologies, priority 2005, published 2007)",
  "origin": "cited, not measured here",
  "key": {"[1]": {"tested_on": "Hepatitis C Virus (HC)", "settings": "up to 1200 mg per day, typically 48 weeks, in conjunction with interferon or long acting pegylated interferon; genotype I patients"}},
  "data": [
    {"compound": "NC(=O)c1ncn([C@@H]2O[C@H](CO)[C@@H](O)[C@H]2O)n1", "note": "[Ribavirin, 1-beta-D-ribofuranosyl-1,2,4-thiazole-3-carboxamide]", "values": [
      {"measurement": "water solubility", "result": 140, "unit": "mg/mL"},
      {"measurement": "sustained virologic response", "setting": "[1]", "result": "30 to 55 % of genotype I patients"}
    ]}
  ]
}
